Laboratory results reported in patent US20160235735A1 (Teva Pharmaceutical Industries, Ltd., priority 2012, published 2016).
“And” between values parts separate entries of the source, which are not always exact repeats. Equal entries are not always repeated.

Assays:
MOG-induced EAE Mice = assay: MOG-induced EAE in mice: laquinimod alone or in combination with fampridine; assay type: in vivo, C57BL/6 mice; conditions: for Incidence / Mortality: 30 days; for % inhibition 3: according to GMS; for % inhibition 2: according to MMS; for % inhibition 1: according to incidence; for GMS value: group mean score; for MMS value: mean maximal score
[1] = cited from earlier work
[2] = in vivo; cited from earlier work
[3] = in vivo; cited from earlier work; remark: listed apart in the source
[4] = 4AP 2.5 mg/kg oral QD, compared to vehicle
[5] = 4AP 5 mg/kg oral QD, compared to vehicle
[6] = laquinimod 10 mg/kg oral QD, compared to vehicle
[7] = laquinimod 25 mg/kg oral QD, compared to LAQ (10 mg/kg)
[8] = laquinimod 25 mg/kg oral QD, compared to vehicle

## Nc1ccncc1 [4AP, pyridin-4-amine]
MOG-induced EAE Mice; 4AP 2.5 mg/kg oral QD
  Incidence: 15/15
  Mortality: 0/15
  GMS value: 2.2 ± 0.5
  MMS value: 3.5 ± 0.6
MOG-induced EAE Mice; [4]
  % inhibition 3: 24.1%
  % inhibition 2: 10.2%
  % inhibition 1: 0%
MOG-induced EAE Mice; 4AP 2.5 mg/kg oral QD, compared to vehicle, listed as fampridine
  % inhibition 3: 24.1%
MOG-induced EAE Mice; 4AP 5 mg/kg oral QD
  Incidence: 15/15
  Mortality: 0/15
  GMS value: 1.9 ± 0.6
  MMS value: 3.4 ± 0.6
MOG-induced EAE Mice; [5]
  % inhibition 3: 34.5%
  % inhibition 2: 12.8%
  % inhibition 1: 0%
MOG-induced EAE Mice; 4AP 5 mg/kg oral QD, compared to vehicle, listed as fampridine
  % inhibition 3: 34.5%
[1]; chloride salt
  solubility in aqueous solution: readily soluble
[1]; unionized form
  lipid solubility: lipid-soluble
[2]
  safety issues: safety issues related to seizure induction

## CCN(C(=O)c1c(O)c2c(Cl)cccc2n(C)c1=O)c1ccccc1 [LAQ, Laquinimod]
MOG-induced EAE Mice; laquinimod 10 mg/kg oral QD
  Incidence: 10/15 and 15/15
  Mortality: 0/15
  GMS value: 1.2 ± 1.0
  MMS value: 2.4 ± 1.9
MOG-induced EAE Mice; [6]
  % inhibition 3: 58.6%
  % inhibition 2: 38.5%
  % inhibition 1: 33.3%
MOG-induced EAE Mice; laquinimod 10 mg/kg oral QD, compared to vehicle, listed as laquinimod
  % inhibition 3: 58.6%
MOG-induced EAE Mice; laquinimod 25 mg/kg oral QD
  Incidence: 4/15
  Mortality: 0/15
  GMS value: 0.4 ± 0.7
  MMS value: 0.7 ± 1.3
MOG-induced EAE Mice; [7]
  % inhibition 3: 66.7%
  % inhibition 2: 70.8%
  % inhibition 1: 60.0%
MOG-induced EAE Mice; [8]
  % inhibition 3: 86.2%
  % inhibition 2: 82.1%
  % inhibition 1: 73.3%
MOG-induced EAE Mice; laquinimod 25 mg/kg oral QD, compared to vehicle, listed as laquinimod
  % inhibition 3: 86.2%
[3]
  oral bioavailability: high oral bioavailability
